Laboratory results: patent US20220089578A1, “COMPOUNDS AS GLP-1R AGONISTS” (Terns Pharmaceuticals, Inc., priority 2020, published 2022)
pEC50: −log10 of the molar value.

Target: human GLP-1R (Homo sapiens, UniProt P43220)
Experiment: GLP-1R Cell Assay 1: cAMP Hunter CHO-K1 GLP1R Gs cell line, HitHunter cAMP assay
Format: cell-based
Details: cAMP Hunter CHO-K1 GLP1R Gs cells, percent activity normalized to Exendin-4
Protocol: GLP-1R mediated agonist activity was determined using the cAMP Hunter CHO-K1 GLP1R Gs cell line (DiscoverX, cat# 95-0062C2), a stable CHO-K1 derived cell lines overexpressing naturally Gs coupled wild-type human GLP-1R (accession number: NM_002062.3). GLP-1R agonism in this cell line was detected by measuring cellular cAMP levels using the HitHunter cAMP assay kit (cat# 90-0075SM2), a homogenous, gain-of-signal competitive immune assay based on Enzyme Fragment Complementation (EFC) technology. In this system cellular cAMP competes with exogenous labeled cAMP (ED-cAMP) for binding to an anti-cAMP antibody. […] The luminescent signal is directly proportional to the amount of cellular cAMP.
For compound testing, cells were seeded in a total volume of 20 μL in white walled, 384-well microplates and incubated at 37° C. prior to compound testing. Prior to compound addition, cell culture media was removed by aspiration and replaced with 15 pt reagent buffer (2:1 HBSS/10 mM HEPES: cAMP XS+Ab reagent). Compounds were dissolved in DSMO and serially diluted (3-fold) prior to final dilution to 4X in assay buffer. Samples (5 μL) were added to cells and incubated at 37° C. for […] prior to 1 hour incubation with 20 pt cAMP XS+ED/CL lysis reagent and 3 hour incubation with 20 μL cAMP XS+EA reagent at room temperature. Microplates were read on a PerkinElmer Envision instrument. Compound activity was analyzed using CBIS data analysis suite (ChemInnovation). Percent activity was calculated based on duplicate assay runs and normalized to the positive control Exendin-4, a GLP-1R peptide agonist, using the following formula: […]
The effective compound concentration resulting in 50% response (EC50) was determined by non-linear regression analysis of dose-response curves.

Sequence of human GLP-1R (P43220 24-463): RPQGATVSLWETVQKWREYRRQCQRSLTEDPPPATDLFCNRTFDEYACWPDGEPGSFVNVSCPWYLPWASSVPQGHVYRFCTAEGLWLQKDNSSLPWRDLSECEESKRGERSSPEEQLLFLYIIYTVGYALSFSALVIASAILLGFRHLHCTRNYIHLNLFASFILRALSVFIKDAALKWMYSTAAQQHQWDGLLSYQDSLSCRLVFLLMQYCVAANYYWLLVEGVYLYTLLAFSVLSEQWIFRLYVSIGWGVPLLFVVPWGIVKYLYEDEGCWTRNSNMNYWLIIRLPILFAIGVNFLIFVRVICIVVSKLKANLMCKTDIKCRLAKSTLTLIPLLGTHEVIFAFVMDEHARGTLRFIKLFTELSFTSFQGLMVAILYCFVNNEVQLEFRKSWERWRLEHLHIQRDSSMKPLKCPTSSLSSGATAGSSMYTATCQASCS

Structure (SMILES)	pEC50 (Table 2)	pEC50 (Table 3)
Cc1cn(C2CCN(Cc3nc4ccc(C(=O)O)cc4n3C[C@@H]3CCO3)CC2)nc1OCc1ccccc1 [Compound 24, (S)-2-((4-(3-(benzyloxy)-4-methyl-1H-pyrazol-1-yl)piperidin-1-yl)methyl)-1-(oxetan-2-ylmethyl)-1H-benzo[d]imidazole-6-carboxylic acid]	6.46	–
N#Cc1cc(F)c2c(c1)CCN(c1cccc(C3CCN(Cc4nc5ccc(C(=O)O)cc5n4C[C@@H]4CCO4)CC3)n1)C2 [Compound 13, (S)-2-((4-(6-(6-cyano-8-fluoro-3,4-dihydroisoquinolin-2(1H)-yl)pyridin-2-yl)piperidin-1-yl)methyl)-1-(oxetan-2-ylmethyl)-1H-benzo[d]imidazole-6-carboxylic acid]	9.10	–
Cn1cnc2cc(COc3cccc(N4CCN(Cc5nc6ccc(C(=O)O)cc6n5C[C@@H]5CCO5)CC4)n3)ccc21 [Compound 3, (S)-2-((4-(6-((1-methyl-1H-benzo[d]imidazol-5-yl)methoxy)pyridin-2-yl)piperazin-1-yl)methyl)-1-(oxetan-2-ylmethyl)-1H-benzo[d]imidazole-6-carboxylic acid]	8.04	–
O=C(O)c1ccc2nc(CN3CC(=O)N(c4cccc(OCc5ccccc5)n4)CC3=O)n(C[C@@H]3CCO3)c2c1 [Compound 17, (S)-2-((4-(6-(benzyloxy)pyridin-2-yl)-2,5-dioxopiperazin-1-yl)methyl)-1-(oxetan-2-ylmethyl)-1H-benzo[d]imidazole-6-carboxylic acid]	7.64	–
CC1(COc2cccc(N3CCN(Cc4nc5ccc(C(=O)O)cc5n4C[C@@H]4CCO4)CC3)n2)CC(F)(F)C1 [Compound 34, (S)-2-((4-(6-((3,3-difluoro-1-methylcyclobutyl)methoxy)pyridin-2-yl)piperazin-1-yl)methyl)-1-(oxetan-2-ylmethyl)-1H-benzo[d]imidazole-6-carboxylic acid]	6.48	–
C[C@]1(c2cccc(OCc3ccc(C#N)cc3F)n2)CCN(Cc2nc3ccc(C(=O)O)cc3n2C[C@@H]2CCO2)C1 (single isomer, unassigned) [Compound 20-P2]	6.78	–
O=C(O)c1ccc2nc(CN3CCC(n4nc(OCc5ccccc5)c5c4CCCC5)CC3)n(C[C@@H]3CCO3)c2c1 [Compound 23, (S)-2-((4-(3-(benzyloxy)-4,5,6,7-tetrahydro-1H-indazol-1-yl)piperidin-1-yl)methyl)-1-(oxetan-2-ylmethyl)-1H-benzo[d]imidazole-6-carboxylic acid]	< 6.30	–
C[C@H]1COC[C@@H](N2CCC(c3cccc(OCc4ccc(C#N)cc4F)n3)CC2)c2nc3ccc(C(=O)O)cc3n21 (single isomer, unassigned) [Compound 8-P2]	7.09	–
O=C(O)c1ccc2nc(CN3CCC(c4cccc(C5CCc6ccccc6C5)n4)CC3)n(C[C@@H]3CCO3)c2c1 (stereo partly drawn) [Compound 12, 1-((S)-oxetan-2-ylmethyl)-2-((4-(6-(1,2,3,4-tetrahydronaphthalen-2-yl)pyridin-2-yl)piperidin-1-yl)methyl)-1H-benzo[d]imidazole-6-carboxylic acid]	6.91	–
O=C(O)c1ccc2nc(CN3CCN(c4cccc(OCC5CCCCC5)n4)CC3)n(C[C@@H]3CCO3)c2c1 [Compound 1, (S)-2-((4-(6-(cyclohexylmethoxy)pyridin-2-yl)piperazin-1-yl)methyl)-1-(oxetan-2-ylmethyl)-1H-benzo[d]imidazole-6-carboxylic acid]	7.37	–
O=C(O)c1ccc2nc(CN3CCN(c4cccc(OC5(c6ccccc6)COC5)n4)CC3)n(C[C@@H]3CCO3)c2c1 [Compound 45, (S)-1-(oxetan-2-ylmethyl)-2-((4-(6-((3-phenyloxetan-3-yl)oxy)pyridin-2-yl)piperazin-1-yl)methyl)-1H-benzo[d]imidazole-6-carboxylic acid]	7.66	–
O=C(O)c1ccc2nc(CN3CCN(c4ccc5c(n4)N(Cc4ccccc4)C(=O)CO5)CC3)n(C[C@@H]3CCO3)c2c1 [Compound 154, (S)-2-((4-(4-benzyl-3-oxo-3,4-dihydro-2H-pyrido[3,2-b][1,4]oxazin-6-yl)piperazin-1-yl)methyl)-1-(oxetan-2-ylmethyl)-1H-benzo[d]imidazole-6-carboxylic acid]	–	< 6.30
N#Cc1cc(F)c2c(c1)CCN(c1cccc(C34CCN(Cc5nc6ccc(C(=O)O)cc6n5CC5CCO5)CC3C4)n1)C2 (stereo not shown) [Compound 168, 2-((6-(6-(6-cyano-8-fluoro-3,4-dihydroisoquinolin-2(1H)-yl)pyridin-2-yl)-3-azabicyclo[4.1.0]heptan-3-yl)methyl)-1-(oxetan-2-ylmethyl)-1H-benzo[d]imidazole-6-carboxylic acid]	–	7.76
O=C(O)c1ccc2nc(CN3CC[C@]4(c5cccc(OCc6nc7ccccc7s6)n5)C[C@@H]4C3)n(C[C@@H]3CCO3)c2c1 (single isomer, unassigned) [Compound 104-P2]	8.09	–

Second part, led by results:

pEC50 (Table 2)	Structure (SMILES)	pEC50 (Table 3)
6.69	O=C(O)c1ccc2nc(CN3CCN(c4cccc(OCC5CC(F)(F)C5)n4)CC3)n(C[C@@H]3CCO3)c2c1 [Compound 50, (S)-2-((4-(6-((3,3-difluorocyclobutyl)methoxy)pyridin-2-yl)piperazin-1-yl)methyl)-1-(oxetan-2-ylmethyl)-1H-benzo[d]imidazole-6-carboxylic acid]	–
8.97	O=C(O)c1ccc2nc(CN3CCN(c4cccc(OCc5nc6c(F)cccc6s5)n4)CC3)n(C[C@@H]3CCO3)c2c1 [Compound 107, (S)-2-((4-(6-((4-fluorobenzo[d]thiazol-2-yl)methoxy)pyridin-2-yl)piperazin-1-yl)methyl)-1-(oxetan-2-ylmethyl)-1H-benzo[d]imidazole-6-carboxylic acid]	–
< 6.30	N#Cc1ccc2c(c1)CCN(c1ccn(C3CCN(Cc4nc5ccc(C(=O)O)cc5n4C[C@@H]4CCO4)CC3)n1)CC2 [Compound 106, (S)-2-((4-(3-(7-cyano-1,2,4,5-tetrahydro-3H-benzo[d]azepin-3-yl)-1H-pyrazol-1-yl)piperidin-1-yl)methyl)-1-(oxetan-2-ylmethyl)-1H-benzo[d]imidazole-6-carboxylic acid]	–
8.31	N#Cc1ccc(COc2nn(C3CCN(Cc4nc5ccc(C(=O)O)cc5n4C[C@@H]4CCO4)CC3)cc2C(F)F)c(F)c1 [Compound 135, (S)-2-((4-(3-((4-cyano-2-fluorobenzyl)oxy)-4-(difluoromethyl)-1H-pyrazol-1-yl)piperidin-1-yl)methyl)-1-(oxetan-2-ylmethyl)-1H-benzo[d]imidazole-6-carboxylic acid]	–
8.92	O=C(O)c1ccc2nc(CN3CCN(c4cccc(OCc5ccc6ccccc6c5)n4)CC3)n(C[C@@H]3CCO3)c2c1 [Compound 70, (S)-2-((4-(6-(naphthalen-2-ylmethoxy)pyridin-2-yl)piperazin-1-yl)methyl)-1-(oxetan-2-ylmethyl)-1H-benzo[d]imidazole-6-carboxylic acid]	–
9.07	N#Cc1ccc(COc2cccc(N3CCN(Cc4nc5ccc(C(=O)O)cc5n4C[C@@H]4CCO4)CC3)n2)nc1 [Compound 62, (S)-2-((4-(6-((5-cyanopyridin-2-yl)methoxy)pyridin-2-yl)piperazin-1-yl)methyl)-1-(oxetan-2-ylmethyl)-1H-benzo[d]imidazole-6-carboxylic acid]	–
9.01	O=C(O)c1ccc2nc(CN3CCN(c4cccc(OCc5nc6cnccc6s5)n4)CC3)n(C[C@@H]3CCO3)c2c1 [Compound 130, (S)-1-(oxetan-2-ylmethyl)-2-((4-(6-(thiazolo[4,5-c]pyridin-2-ylmethoxy)pyridin-2-yl)piperazin-1-yl)methyl)-1H-benzo[d]imidazole-6-carboxylic acid]	–
8.21	O=C(O)c1ccc2nc(CN3CCN(c4cccc(OCc5cc6ccccc6cn5)n4)CC3)n(C[C@@H]3CCO3)c2c1 [Compound 85, (S)-2-((4-(6-(isoquinolin-3-ylmethoxy)pyridin-2-yl)piperazin-1-yl)methyl)-1-(oxetan-2-ylmethyl)-1H-benzo[d]imidazole-6-carboxylic acid]	–
< 6.30	CS(=O)(=O)N1CC(COc2cccc(N3CCN(Cc4nc5ccc(C(=O)O)cc5n4C[C@@H]4CCO4)CC3)n2)C1 [Compound 56, (S)-2-((4-(6-((1-(methylsulfonyl)azetidin-3-yl)methoxy)pyridin-2-yl)piperazin-1-yl)methyl)-1-(oxetan-2-ylmethyl)-1H-benzo[d]imidazole-6-carboxylic acid]	–
8.37	C[C@@H](Oc1cccc(N2CCN(Cc3nc4ccc(C(=O)O)cc4n3C[C@@H]3CCO3)CC2)n1)c1nc2ccccc2s1 [Compound 116, 2-((4-(6-((R)-1-(benzo[d]thiazol-2-yl)ethoxy)pyridin-2-yl)piperazin-1-yl)methyl)-1-(((S)-oxetan-2-yl)methyl)-1H-benzo[d]imidazole-6-carboxylic acid]	–
9.24	N#Cc1ccc(COc2cccc(N3CCN(Cc4nc5ccc(C(=O)O)cc5n4C[C@@H]4CCS4(=O)=O)CC3)n2)c(F)c1 (single isomer, unassigned) [Compound 140-P1]	–
